Reference: publication PMC3890372 (Nature communications, 2013)

Columns and labels:
[1] = target: T1, Drosophila Smo CRD (Smoothened) (Drosophila melanogaster, UniProt P91682); test: Bio-Layer Interferometry; type: binding
T1 sequence (P91682 85-202): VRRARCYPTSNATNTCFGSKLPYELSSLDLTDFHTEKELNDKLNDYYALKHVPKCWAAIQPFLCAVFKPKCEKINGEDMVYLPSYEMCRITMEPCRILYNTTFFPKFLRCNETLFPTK

[2] = target: T2, human Smo CRD (Smoothened) (Homo sapiens, UniProt Q99835); test: Bio-Layer Interferometry; type: binding
T2 sequence (Q99835 65-177): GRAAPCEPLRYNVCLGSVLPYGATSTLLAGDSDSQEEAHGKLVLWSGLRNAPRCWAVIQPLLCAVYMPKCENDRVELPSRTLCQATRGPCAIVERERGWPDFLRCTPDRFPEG

Work on `CCCC1O[C@@H]2C[C@H]3[C@@H]4CCC5=CC(=O)C=C[C@]5(C)[C@H]4[C@@H](O)C[C@]3(C)[C@]2(C(=O)CO)O1` (some centres unmarked) [Bud, budesonide] yielded a Kd [1] of 120 ± 98 µM and a Kd [2] of 52 ± 16 µM.
